Experimental data: patent publication US20080125467A1, “Amino-Containing Compounds Which Inhibit Memapsin 2 Beta-Secretase Activity and Methods of Use Thereof” (priority 2004, published 2008)

Columns and labels:
memapsin 2 [1] = target: T1, memapsin 2 (Cricetulus griseus, UniProt G3IAK4); test: Cellular Aβ IC50 determination (Aβ40 sandwich ELISA); assay type: cell-based; conditions: Chinese hamster ovary cells over-expressing human APP695 with London and Swedish mutations, 24 h
T1 construct: endogenous in cells; host or cells: Chinese hamster ovary cells over-expressing human APP695 (London + Swedish)
Description: The potency of compounds against memapsin 2 activity was determined in a cellular assay of Aβ production. […] Chinese hamster ovary cells that over-express human APP695 with the London and Swedish mutations were seeded in multi-well plates at 10% confluency. Compounds were dissolved in DMSO to concentrations near 1 mM, and diluted into culture media to a final concentration near 4 μM (final 0.4% DMSO). Compounds were diluted serially and applied to cells in multi-well plates 48 h after seeding. Incubation was continued in 5% CO2 at 37 degrees C. for 24 h. Aliquots were removed and assayed for Aβ40 content using a sandwich ELISA (BioSource International). Amount of Aβ40 over the range of concentration of compounds, relative to control incubations, were fit to a 4-parameter IC50 model.

memapsin 2 [2] = target: memapsin 2 (Homo sapiens, UniProt P56817); test: Inhibition of memapsin 2 beta-secretase activity toward fluorogenic substrate FS-2; assay type: biochemical; conditions: pH 4, 37° C., 20 minutes pre-incubation, fluorogenic substrate FS-2, tight-binding model; read-out: M2 Ki
Chain of memapsin 2 (Homo sapiens, UniProt P56817) (P56817 46-501): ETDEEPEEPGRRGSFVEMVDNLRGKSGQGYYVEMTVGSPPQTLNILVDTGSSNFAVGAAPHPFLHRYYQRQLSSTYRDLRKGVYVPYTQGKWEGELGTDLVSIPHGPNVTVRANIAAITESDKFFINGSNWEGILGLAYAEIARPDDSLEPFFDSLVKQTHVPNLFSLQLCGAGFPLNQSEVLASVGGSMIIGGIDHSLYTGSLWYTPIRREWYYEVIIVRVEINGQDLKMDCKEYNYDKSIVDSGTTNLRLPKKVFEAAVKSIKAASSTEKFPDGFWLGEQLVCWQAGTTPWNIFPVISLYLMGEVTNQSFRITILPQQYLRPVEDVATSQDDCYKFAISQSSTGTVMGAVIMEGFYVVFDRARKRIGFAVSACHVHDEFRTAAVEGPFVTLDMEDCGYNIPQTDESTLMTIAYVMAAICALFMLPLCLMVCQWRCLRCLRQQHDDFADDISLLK
Description: Potency of compounds were determined by measurement of their inhibition of memapsin 2 activity toward a fluorescent substrate. […] Briefly, assays were performed at pH 4, 37° C., by pre-incubation of memapsin 2 enzyme with compound for 20 minutes. Activity measure was initiated by addition of a fluorogenic substrate FS-2 (Bachem Americas, Torrance, Calif.). Fluorescent signal increase over time was measured as a rate of hydrolysis of the peptide substrate.

T1 sequence (G3IAK4 22-501): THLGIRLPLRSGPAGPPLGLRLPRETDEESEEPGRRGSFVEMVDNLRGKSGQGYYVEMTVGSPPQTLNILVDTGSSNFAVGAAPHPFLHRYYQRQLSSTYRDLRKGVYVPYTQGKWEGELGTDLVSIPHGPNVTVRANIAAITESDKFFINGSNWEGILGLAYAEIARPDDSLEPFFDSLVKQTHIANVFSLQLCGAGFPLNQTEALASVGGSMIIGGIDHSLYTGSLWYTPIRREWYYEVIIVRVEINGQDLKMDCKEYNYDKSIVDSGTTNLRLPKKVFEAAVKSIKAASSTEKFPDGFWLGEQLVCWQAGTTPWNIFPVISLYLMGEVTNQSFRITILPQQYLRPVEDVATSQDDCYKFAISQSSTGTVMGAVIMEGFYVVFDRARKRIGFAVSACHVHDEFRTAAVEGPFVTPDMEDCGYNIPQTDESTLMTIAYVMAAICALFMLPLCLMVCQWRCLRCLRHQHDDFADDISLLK

In the case of Cc1csc(CC(C)C(=O)NC(CNC(=O)OC2CCOC2)C(=O)NC(CC(C)C)C(O)CC(C)C(=O)NC(C(=O)NCC(C)C)C(C)C)n1 (centres unmarked) [tetrahydrofuran-3-yl 3-(5-hydroxy-8-(1-(isobutylamino)-3-methyl-1-oxobutan-2-ylamino)-2,7-dimethyl-8-oxooctan-4-ylamino)-2-(2-methyl-3-(4-methylthiazol-2-yl)propanamido)-3-oxopropylcarbamate], the IC50 (memapsin 2 [1]) is reported as under 6 µM.

CCC(Cn1nc(C)cc1C)C(=O)NC(CNC(=O)OC(C)(C)C)C(=O)NC(CC(C)C)C(O)CC(C)C(=O)NC(C(=O)NCc1nc(C)cs1)C(C)C (centres unmarked) [tert-butyl 2-(2-((3,5-dimethyl-1H-pyrazol-1-yl)methyl)butanamido)-3-(5-hydroxy-2,7-dimethyl-8-(3-methyl-1-((4-methylthiazol-2-yl)methylamino)-1-oxobutan-2-ylamino)-8-oxooctan-4-ylamino)-3-oxopropylcarbamate] showed a Ki (memapsin 2 [2]) of under 0.1 µM and an IC50 (memapsin 2 [1]) of under 6 µM.

CCC(Cc1nc(C)cs1)C(=O)NC(CN(C)OC)C(=O)NC(CC(C)C)C(O)CC(C)C(=O)NC(C(=O)NCC(C)C)C(C)C (centres unmarked) [4-hydroxy-N-(1-(isobutylamino)-3-methyl-1-oxobutan-2-yl)-5-(3-(methoxy(methyl)amino)-2-(2-((4-methylthiazol-2-yl)methyl)butanamido)propanamido)-2,7-dimethyloctanamide] was tested, and the IC50 (memapsin 2 [1]) was over 100 µM.

Cc1csc(CC(C)C(=O)NC(CNC(=O)OC(C)(C)C)C(=O)NC(Cc2ccccc2)C(O)CC(C)C(=O)NC(C(=O)NCC(C)C)C(C)C)n1 (centres unmarked) [tert-butyl 3-(3-hydroxy-6-(1-(isobutylamino)-3-methyl-1-oxobutan-2-ylamino)-5-methyl-6-oxo-1-phenylhexan-2-ylamino)-2-(2-methyl-3-(4-methylthiazol-2-yl)propanamido)-3-oxopropylcarbamate] was tested, and the IC50 (memapsin 2 [1]) was 6 to 100 µM.
